Patent US20100075957A1, “AMINODIHYDROTHIAZINE DERIVATIVES SUBSTITUTED WITH A CYCLIC GROUP” (SHIONOGI & CO., LTD., priority 2007, published 2010)

What follows are compounds tested against T1, Recombinant human BACE-1 (Homo sapiens, UniProt P56817) (assay: Assay of β-secretase-inhibiting activity). Conditions: Recombinant human BACE-1 7.4 nM, substrate peptide 18 nM, pH 5.0, 30° C., 3 hours; Table 140; read-out: IC50.
T1 construct: purchased R&D Systems
Type: biochemical
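Further: substrate is a peptide carrying biotin and europium cryptate, after the enzyme reaction, Streptavidin-XL665 is added and incubated 1 h at 30 °C before fluorescence reading.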

T1 sequence (P56817 46-501): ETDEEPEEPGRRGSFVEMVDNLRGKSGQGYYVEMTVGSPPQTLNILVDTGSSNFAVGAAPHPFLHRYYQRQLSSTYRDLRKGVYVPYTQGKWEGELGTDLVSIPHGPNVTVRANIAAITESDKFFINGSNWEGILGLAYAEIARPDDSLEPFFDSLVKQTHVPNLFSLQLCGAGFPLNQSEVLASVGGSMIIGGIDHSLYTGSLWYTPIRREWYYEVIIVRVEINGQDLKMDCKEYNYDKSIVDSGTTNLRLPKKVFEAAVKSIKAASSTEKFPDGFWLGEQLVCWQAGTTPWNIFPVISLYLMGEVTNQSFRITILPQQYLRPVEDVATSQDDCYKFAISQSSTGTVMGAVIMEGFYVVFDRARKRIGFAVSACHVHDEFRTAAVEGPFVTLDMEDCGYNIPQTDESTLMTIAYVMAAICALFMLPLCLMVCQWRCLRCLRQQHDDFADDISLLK

SMILES	IC50 [nM]
CC(=O)c1ccc(C(=O)Nc2ccc(F)c([C@]3(C)CCSC(N)=N3)c2)s1 [Compound 530]	90
C[C@@]1(c2cc(NC(=O)c3cnc(-c4ccsc4)cn3)ccc2F)CCSC(N)=N1 [Compound 537]	20
Cc1cnc(C(=O)Nc2ccnc([C@]3(C)CCSC(N)=N3)c2)cn1 [Compound 551]	20
C[C@@]1(c2cc(NC(=O)c3ccc(OCC(N)=O)cn3)ccc2F)CCSC(N)=N1 [Compound 559]	420
Cc1cnc(C(=O)Nc2cccc([C@]3(C)CCSC(N)=N3)c2)cn1 [Compound 563]	20
C[C@@]1(c2cc(NC(=O)c3ccc(OCC#CCN)cn3)ccc2F)CCSC(N)=N1 [Compound 566]	180

The remaining lines, values ahead:

IC50 [nM]	SMILES
30	Cc1cnn(-c2cnc(C(=O)Nc3ccc(F)c([C@]4(C)CCSC(N)=N4)c3)cn2)c1 [Compound 577]
140	Cc1cc(C)n(-c2cnc(C(=O)Nc3ccc(F)c([C@]4(C)CCSC(N)=N4)c3)cn2)n1 [Compound 579]
130	C[C@@]1(c2cc(NC(=O)c3cnc(-n4ccc(C(F)(F)F)n4)cn3)ccc2F)CCSC(N)=N1 [Compound 580]
60	Cc1cncc(C(=O)Nc2ccc(F)c([C@]3(C)CCSC(N)=N3)c2)n1 [Compound 585]
60	COc1cnc(C(=O)Nc2cccc([C@]3(C)CCSC(N)=N3)n2)cn1 [Compound 589]
100	COCCOc1cnc(C(=O)Nc2cc([C@]3(C)CCSC(N)=N3)ccn2)cn1 [Compound 591]
280	Cc1cnc(C(=O)Nc2cc([C@]3(C)CCSC(N)=N3)ccn2)cn1 [Compound 593]
170	Cc1cnc(C(=O)Nc2cccc([C@]3(C)CCSC(N)=N3)n2)cn1 [Compound 594]
70	C[C@@]1(c2cncc(NC(=O)c3cnc(Cl)cn3)c2)CCSC(N)=N1 [Compound 597]
30	C[C@@]1(c2ccnc(NC(=O)c3ccc(Cl)cn3)c2)CCSC(N)=N1 [Compound 598]
30	C[C@@]1(c2cccc(NC(=O)c3ccc(Cl)cn3)n2)CCSC(N)=N1 [Compound 599]
200	CC1(C)C[C@@](C)(c2cc(NC(=O)c3coc(Cl)n3)ccc2F)N=C(N)S1 [Compound 645]

Same assay, conditions: Recombinant human BACE-1 7.4 nM, substrate peptide 18 nM, pH 5.0, 30° C., 3 hours; Table 141; read-out: IC50

SMILES	IC50 [nM]
Cc1cn2cc(C(=O)Nc3ccc(F)c([C@]4(C)CCSC(N)=N4)c3)ncc2n1 [Compound 652]	60

Same assay, conditions: Recombinant human BACE-1 7.4 nM, substrate peptide 18 nM, pH 5.0, 30° C., 3 hours; time-resolved fluorescence ratio 665/620; read-out: IC50 values (50% inhibitory concentration against the enzymatic activity)

SMILES	IC50 [nM]
Cc1nc(-c2ccc(C(=O)Nc3ccc(F)c([C@]4(C)CCSC(N)=N4)c3)cc2)no1 [Compound 531]	≤ 1000
Cc1ccc(C(=O)Nc2ccc(F)c([C@]3(C)CCSC(N)=N3)c2)s1 [Compound 532]	≤ 1000
Cc1csc(C(=O)Nc2ccc(F)c([C@]3(C)CCSC(N)=N3)c2)c1 [Compound 533]	≤ 1000
C[C@@]1(c2cc(NC(=O)c3cc4ccccc4[nH]3)ccc2F)CCSC(N)=N1 [Compound 536]	≤ 1000
C[C@@]1(c2cc(NC(=O)c3cc4cccnc4s3)ccc2F)CCSC(N)=N1 [Compound 539]	≤ 1000
C[C@@]1(c2cc(NC(=O)c3cc4ccccc4o3)ccc2F)CCSC(N)=N1 [Compound 540]	≤ 1000
Cc1cscc1-c1cnc(C(=O)Nc2ccc(F)c([C@]3(C)CCSC(N)=N3)c2)cn1 [Compound 541]	≤ 1000
C[C@@]1(c2cc(NC(=O)c3cc4ccccc4s3)ccc2F)CCSC(N)=N1 [Compound 545]	≤ 1000
C[C@@]1(c2cc(NC(=O)c3cc4cc(C(F)(F)F)ccc4s3)ccc2F)CCSC(N)=N1 [Compound 546]	≤ 1000
COc1cnc(C(=O)Nc2cncc([C@]3(C)CCSC(N)=N3)c2)cn1 [Compound 547]	≤ 1000
COc1cnc(C(=O)Nc2ccnc([C@]3(C)CCSC(N)=N3)c2)cn1 [Compound 548]	≤ 1000
COCCOc1cnc(C(=O)Nc2ccnc([C@]3(C)CCSC(N)=N3)c2)cn1 [Compound 549]	≤ 1000
Cc1cnc(C(=O)Nc2cncc([C@]3(C)CCSC(N)=N3)c2)cn1 [Compound 550]	≤ 1000
C[C@@]1(c2cc(NC(=O)c3ccc(Cl)cn3)ccn2)CCSC(N)=N1 [Compound 552]	≤ 1000
Cn1ccnc1C(=O)Nc1ccc(F)c([C@]2(C)CCSC(N)=N2)c1 [Compound 553]	≤ 1000
Cc1nc(C(=O)Nc2ccc(F)c([C@]3(C)CCSC(N)=N3)c2)c(C)o1 [Compound 554]	≤ 1000
COc1cnc(C(=O)Nc2cncc([C@]3(C)CCSC(N)=N3)c2)c(N)n1 [Compound 555]	≤ 1000
C#CCOc1cnc(C(=O)Nc2cncc([C@]3(C)CCSC(N)=N3)c2)cn1 [Compound 556]	≤ 1000
C[C@@]1(c2cncc(NC(=O)c3cnc(OCCF)cn3)c2)CCSC(N)=N1 [Compound 557]	≤ 1000
COc1cnc(C(=O)Nc2cncc([C@]3(C)CC(C)(C)SC(N)=N3)c2)c(N)n1 [Compound 558]	≤ 1000
COc1cnc(C(=O)Nc2cncc([C@]3(C)CC(C)(C)SC(N)=N3)c2)cn1 [Compound 560]	≤ 1000
C#CCOc1cnc(C(=O)Nc2cncc([C@]3(C)CC(C)(C)SC(N)=N3)c2)cn1 [Compound 561]	≤ 1000
COCCOc1cnc(C(=O)Nc2cncc([C@]3(C)CC(C)(C)SC(N)=N3)c2)cn1 [Compound 562]	≤ 1000
COc1cnc(C(=O)Nc2cncc([C@]3(C)CCSC(N)=N3)c2)c(C)c1 [Compound 564]	≤ 1000
C[C@@]1(c2cccc(NC(=O)c3cnc(OCCF)cn3)c2)CCSC(N)=N1 [Compound 565]	≤ 1000
C[C@@]1(c2cc(NC(=O)c3ccc(OCC#CCO)cn3)ccc2F)CCSC(N)=N1 [Compound 567]	≤ 1000
COc1cnc(C(=O)Nc2ccc(F)c([C@]3(C)CCSC(N)=N3)c2)c(C)c1 [Compound 602]	≤ 1000

The next lines start with the values.

IC50 [nM]	SMILES
≤ 1000	CC1(C)C[C@@](C)(c2cncc(NC(=O)c3cnc(OCCF)cn3)c2)N=C(N)S1 [Compound 568]
≤ 1000	CNCC#CCOc1ccc(C(=O)Nc2ccc(F)c([C@]3(C)CCSC(N)=N3)c2)nc1 [Compound 569]
≤ 1000	CN(C)CC#CCOc1ccc(C(=O)Nc2ccc(F)c([C@]3(C)CCSC(N)=N3)c2)nc1 [Compound 570]
≤ 1000	COCC#CCOc1ccc(C(=O)Nc2ccc(F)c([C@]3(C)CCSC(N)=N3)c2)nc1 [Compound 571]
≤ 1000	C[C@@]1(c2cncc(NC(=O)c3ncc(Cl)cc3Cl)c2)CCSC(N)=N1 [Compound 572]
≤ 1000	C[C@@]1(c2cc(NC(=O)c3ccc(OCC#CCCl)cn3)ccc2F)CCSC(N)=N1 [Compound 573]
≤ 1000	C[C@@]1(c2cncc(NC(=O)c3ncc(C(F)(F)F)cc3Cl)c2)CCSC(N)=N1 [Compound 574]
≤ 1000	CC1(C)C[C@@](C)(c2cncc(NC(=O)c3ncc(C(F)(F)F)cc3Cl)c2)N=C(N)S1 [Compound 575]
≤ 1000	Cc1cn(-c2cnc(C(=O)Nc3ccc(F)c([C@]4(C)CCSC(N)=N4)c3)cn2)cn1 [Compound 578]
≤ 1000	C[C@@]1(c2cncc(NC(=O)c3ccc(Cl)cn3)n2)CCSC(N)=N1 [Compound 581]
≤ 1000	COc1cnc(C(=O)Nc2cnc(Cl)c([C@]3(C)CCSC(N)=N3)c2)cn1 [Compound 582]
≤ 1000	COCCOc1cnc(C(=O)Nc2cnc(Cl)c([C@]3(C)CCSC(N)=N3)c2)cn1 [Compound 583]
≤ 1000	Cc1nc(C(=O)Nc2cnc(Cl)c([C@]3(C)CCSC(N)=N3)c2)co1 [Compound 584]
≤ 1000	Cc1nc(C(=O)Nc2cnc(Cl)c([C@]3(C)CCSC(N)=N3)c2)c(C)o1 [Compound 586]
≤ 1000	C[C@@]1(c2cc(NC(=O)c3cccc(F)n3)ccc2F)CCSC(N)=N1 [Compound 587]
≤ 1000	COCCOc1cnc(C(=O)Nc2cncc([C@]3(C)CCSC(N)=N3)c2)cn1 [Compound 590]
≤ 1000	COCCOc1cnc(C(=O)Nc2cccc([C@]3(C)CCSC(N)=N3)n2)cn1 [Compound 592]

IC50 [nM]	SMILES
≤ 1000	CC#CCOc1cnc(C(=O)Nc2cncc([C@]3(C)CCSC(N)=N3)c2)cn1 [Compound 595]
≤ 1000	CC#CCOc1cnc(C(=O)Nc2cc([C@]3(C)CCSC(N)=N3)ccn2)cn1 [Compound 596]
≤ 1000	COc1cnc(C(=O)Nc2ccc(F)c([C@]3(C)CC(C)(C)SC(N)=N3)c2)cn1 [Compound 600]
≤ 1000	COCCOc1cnc(C(=O)Nc2ccc(F)c([C@]3(C)CC(C)(C)SC(N)=N3)c2)cn1 [Compound 601]
≤ 1000	COc1cnc(C(=O)Nc2ccc(F)c([C@]3(C)CCSC(N)=N3)c2)c(N)n1 [Compound 603]
≤ 1000	CC1(C)C[C@@](C)(c2cc(NC(=O)c3cnc(OCCF)cn3)ccc2F)N=C(N)S1 [Compound 605]
≤ 1000	Cc1cnc(C(=O)Nc2ccc(F)c([C@]3(C)CC(C)(C)SC(N)=N3)c2)cn1 [Compound 606]
≤ 1000	Cc1nc(C(=O)Nc2ccc(F)c([C@]3(C)CC(C)(C)SC(N)=N3)c2)co1 [Compound 609]
≤ 1000	Cc1nc(C(=O)Nc2ccnc([C@]3(C)CCSC(N)=N3)c2)co1 [Compound 612]
≤ 1000	C[C@@]1(c2cc(NC(=O)c3ncccc3F)ccn2)CCSC(N)=N1 [Compound 613]
≤ 1000	COc1cnc(C(=O)Nc2ccnc([C@]3(C)CC(C)(C)SC(N)=N3)c2)cn1 [Compound 637]
≤ 1000	CC1(C)C[C@@](C)(c2cc(NC(=O)c3ncc(C(F)(F)F)cc3Cl)ccc2F)N=C(N)S1 [Compound 644]
≤ 1000	C[C@@]1(c2cncc(NC(=O)c3ncc(C(F)(F)F)cc3F)c2)CCSC(N)=N1 [Compound 646]
≤ 1000	COc1cnc(C(=O)Nc2ccc(F)c([C@@]3(C)N=C(N)SCC3(C)C)c2)cn1 [Compound 647]
≤ 1000	Cc1cnc(C(=O)Nc2ccc(F)c([C@@]3(C)N=C(N)SCC3(C)C)c2)cn1 [Compound 649]
≤ 1000	C[C@@]1(c2cc(NC(=O)c3cn4cc(C(F)(F)F)nc4cn3)ccc2F)CCSC(N)=N1 [Compound 651]
